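1) Cells in 96-well plates. 2) Compound, 48 h, 5 concentrations. 3) Linear interpolation between surrounding doses. 4) Unreached endpoint = highest concentration. GI50: concentration for 50% inhibition of growth.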 Calls of active or inactive are those of the source. Cut-off read from the data, not from the text of the source: active = GI50 up to about 1.1 µM and inactive = higher.

Test systems include UO-31; HCT-15; PC-3; T47D; NCI/ADR-RES; SN12C; NCI-H460; LOX IMVI; SK-MEL-5; DU-145; RPMI-8226; SF-295; NCI-H226; MCF7; SF-268; HOP-92; SW-620; IGROV-1; A549; U-251.
Test in all cases: NCI-60 cell line screen, 48 h

Turning to `Clc1ccc(-c2cc(-c3cc4cc(Br)ccc4nc3Cl)on2)cc1`, the GI50 with UO-31 is 17.3 µM (inactive); with HCT-15 it was 16.2 µM; in the assay with PC-3, 16.5 µM (inactive); with T47D, 15 µM (inactive); with NCI/ADR-RES, 14.9 µM (inactive); in the assay on SN12C, 16.1 µM (inactive). In addition, the GI50 in the assay with NCI-H460 was 10.1 µM (inactive); with LOX IMVI, 10 µM (inactive); in the assay on SK-MEL-5, 9.12 µM (inactive); in the assay with DU-145, 18.8 µM (inactive); in the assay on RPMI-8226 it was 15.4 µM (inactive); in the assay with SF-295, 11.3 µM (inactive). Besides, the GI50 in the assay on NCI-H226 was 13.3 µM (inactive); in the assay with MCF7 it was 13.1 µM (inactive); in the assay with SF-268, 13.4 µM (inactive); in the assay on HOP-92, 27.9 µM (inactive); in the assay with SW-620, 10.4 µM (inactive); with IGROV-1, 12.9 µM (inactive). For the same compound, the GI50 with A549 was 13.2 µM (inactive).
Consider `CCCCCC(/C=N/N)C(O)(C(F)(F)F)C(F)(F)F` (stereo unspecified), for which the GI50 with HCT-15 is 3.48 µM; in the assay with PC-3, 3.27 µM (inactive); in the assay with T47D, 7.08 µM (inactive); in the assay with NCI/ADR-RES, > 10 µM (inactive); in the assay with SN12C, 3.23 µM (inactive); in the assay with NCI-H460, 3.34 µM (inactive). For the same compound, the GI50 with LOX IMVI was 3.32 µM (inactive); in the assay with U-251, 3.61 µM (inactive); with SK-MEL-5, 1.77 µM (inactive); in the assay on DU-145, 1.9 µM (inactive); with RPMI-8226, > 10 µM (inactive); with SF-295, 3.13 µM (inactive). Besides, the GI50 is 2.54 µM (inactive) in the assay on NCI-H226; 3.22 µM (inactive) with MCF7; 1.87 µM (inactive) with SF-268; 2.79 µM (inactive) in the assay on HOP-92; 2.53 µM (inactive) in the assay on SW-620; 7.18 µM (inactive) in the assay on IGROV-1. Further, the GI50 in the assay with A549 was 4.91 µM (inactive).
For the compound `O=C(O)COCC(=O)N(CCOCCN(Cc1ccccc1)C(=O)COCC(=O)O)Cc1ccccc1`, the GI50 in the assay on HCT-15 is over 100 µM; with PC-3, > 100 µM (inactive); in the assay with T47D, > 100 µM (inactive); in the assay with NCI/ADR-RES it was > 100 µM (inactive); with SN12C it was > 100 µM (inactive); in the assay on NCI-H460 it was > 100 µM (inactive). For the same compound, the GI50 with LOX IMVI, in the assay with U-251, in the assay with SK-MEL-5, in the assay on DU-145, with RPMI-8226 and with SF-295 was > 100 µM (inactive) in each case. Also, the GI50 with NCI-H226 was > 100 µM (inactive); in the assay on MCF7, > 100 µM (inactive); in the assay on SF-268 it was > 100 µM (inactive); in the assay on HOP-92, < 0.01 µM (active); with SW-620, > 100 µM (inactive); in the assay on IGROV-1 it was > 100 µM (inactive). Also, the GI50 in the assay with A549 is > 100 µM (inactive).
In the case of `CC(C)c1nc2c(Cl)c3ncccc3cc2[nH]c1=O`, the GI50 is > 100 µM (inactive) in the assay on UO-31; 74 µM in the assay on HCT-15; > 100 µM (inactive) in the assay with PC-3; 70.5 µM (inactive) with T47D; 37.8 µM (inactive) in the assay on NCI/ADR-RES; > 100 µM (inactive) in the assay on SN12C. For the same compound, the GI50 in the assay with NCI-H460 is 88.1 µM (inactive); in the assay with U-251, 73.3 µM (inactive); with SK-MEL-5, 73.6 µM (inactive); with DU-145 it was > 100 µM (inactive); in the assay on RPMI-8226, > 100 µM (inactive); in the assay on SF-295, > 100 µM (inactive). The GI50 in the assay with NCI-H226 is 65.9 µM (inactive); in the assay on MCF7, > 100 µM (inactive); in the assay with SF-268, 34.1 µM (inactive); with HOP-92 it was > 100 µM (inactive); in the assay on SW-620 it was > 100 µM (inactive); in the assay with IGROV-1, 14.8 µM (inactive). In the assay with A549, the GI50 is > 100 µM (inactive).
